This is an account of results in patent US9085514B2, “Unnatural amino acids comprising a cyclooctynyl or trans-cyclooctenyl analog group and uses thereof” (EMBL, priority 2011, dated 2015).

Type in all cases: cell-based, M. maize
One experiment addresses T1, tRNA^pyl/pylRS^AF (Methanosarcina mazei, UniProt Q8PWY1, Y306A/Y384F).
T1 construct: expressed in transfected cells; host or cells: HeLa Kyoto cells, plasmid pCMV tRNA^pyl/pylRS^AF
Kind of experiment: UAA dependent amber suppression in HeLa cells (NLS-mCherry-^TAGGFP, automated microscope), RS^AF. The conditions noted are these: HeLa nuclei, 24 h after transfection. The text has this: (§1) A single expression plasmid for expression of both tRNA^pyl and the pyrrolysine synthetase pylRS was generated by replacing the tRNA and synthetase of mammalian UAA expression plasmid pSWAN (Liu et al., Nat Methods 2007, 4: 239) with a synthetic gene derived from the plasmid pEVOL tRNA^pyl/pylRS^WT or pEVOL tRNA^pyl/pylRS^AF.
(§2) For mammalian amber suppression studies, a NLS-mCherry-^TAGGFP fusion protein was generated. Due to the nuclear localization sequence (NLS) the expressed protein was targeted to the nucleus. Accordingly, mCherry expression was visible by orange fluorescence in the nucleus signifying the successful transfection of the plasmid. Green fluorescence indicated successful GFP expression due to successful co-transfection of the appropriate tRNA^pyl/pylRS plasmid and suppression of the amber codon in the fused ^TAGGFP.
(§3) UAA concentration dependent GFP expression in the presence of UAA 1, 13, 16 or 17 and RS^WT or RS^AF was analyzed using the following automated microscope procedure.
(§4) HeLa Kyoto cells were grown in DMEM low glucose medium (1 g/l) (Sigma, Munich, Germany) with 10% FBS (Sigma) and 1% L-glutamine. 10−20×10^3 cells per well were seeded in a glass bottom 24-well chamber and cultured overnight. On the next-day, the growth medium was exchanged for fresh one supplied with increasing concentrations of UAA (0, 1, 10, 100, 250, 1000 μM), and the cells were co-transfected (1:1 ratio) with plasmids-carrying NLS-mCherry-^TAGGFP and the respective tRNA^pyl/pylRS pair (RS^WT or RS^AF) using jetPRIME transfection reagent following the manufacturer protocol (Polyplus-transfection. SA, Illkirch, France). 24 h after transfection, cells were stained with Hoechst 33342 (1 μg/ml, 10 min), fixed with 2% paraformaldehyde (15 min, RT) and kept in PBS for imaging. For every UAA concentration, the experiment was repeated twice and in two independently prepared 24 well chambers.
(§5) Microscopy imaging was performed using automated widefield Olympus ScanR microscope (objective UplanApo 20×, 0.70 NA, Hamamatsu Orca R2 CCD camera) in, three channels (Hoechst, GFP, mCherry). For every well at least 25 images (1344×1024 pixels; 433×330 μm, 12-bit) were acquired (exposure times: 30 ms Hoechst, 100 ms mCherry, 100 ms for GFP). Hoechst staining allowed use of the automated focus option of the system. Images were analyzed using the ImageJ macro (http://fiji.sc/wiki/index.php) allowing quantification of GFP fluorescence intensity in the cells showing mCherry fluorescence signal. Hoechst staining was used to threshold and select nuclei. For every detected nucleus, intensities, in the mCherry and GFP channels were quantified. Background intensities in GFP and mCherry channel were measured using one well of each chamber containing cells that were not transfected but stained with Hoechst. Those background values set the threshold to discriminate cells expressing mCherry from the background. For every well the average intensity of GFP (IGFP) in cells positive for GFP and mCherry signals was determined as a measure of successful UAA incorporation. GFP intensities were normalized separately for every UAA based on the maximal observed signal (either for RS^WT or RS^AF).

The target in a further experiment is T2, tRNA^pyl/pylRS^WT (Methanosarcina mazei, UniProt Q8PWY1).
T2 construct: expressed in transfected cells; host or cells: HeLa Kyoto cells, plasmid pCMV tRNA^pyl/pylRS^WT
T2 sequence (Q8PWY1 whole entry): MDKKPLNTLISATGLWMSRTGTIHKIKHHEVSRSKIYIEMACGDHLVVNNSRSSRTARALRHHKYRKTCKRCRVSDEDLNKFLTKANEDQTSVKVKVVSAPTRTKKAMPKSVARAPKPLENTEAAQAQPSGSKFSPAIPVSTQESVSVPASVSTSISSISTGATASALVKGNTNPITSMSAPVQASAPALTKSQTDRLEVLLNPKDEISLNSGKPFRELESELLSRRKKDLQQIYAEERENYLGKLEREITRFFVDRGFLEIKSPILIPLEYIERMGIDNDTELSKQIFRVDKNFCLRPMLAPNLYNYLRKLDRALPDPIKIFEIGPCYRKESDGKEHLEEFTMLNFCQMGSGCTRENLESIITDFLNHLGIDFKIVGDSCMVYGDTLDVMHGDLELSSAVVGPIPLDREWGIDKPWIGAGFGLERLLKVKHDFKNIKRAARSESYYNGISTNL
Kind of experiment: UAA dependent amber suppression in HeLa cells (NLS-mCherry-^TAGGFP, automated microscope), RS^WT. The conditions noted are these: HeLa nuclei, 24 h after transfection.
Text: as §1, §2, §3, §4, §5

For experiment [1], the target named is T3, mutant pyrrolysyl tRNA synthetase comprising amino acid substitutions Y306A and Y384F (pylRS^AF) (Methanosarcina mazei, UniProt Q8PWY1, Y306A/Y384F).
T3 construct: expressed in transfected cells; host or cells: E. coli Top10, plasmid pEVOL tRNA^pyl/pylRS^AF
T3 sequence (Q8PWY1 whole entry Y306A/Y384F): as the sequence (Q8PWY1 whole entry) above, with Y306A, Y384F counted along it
Kind of experiment: Expression of GFP^TAG in E. coli in presence of UAA (amber suppression) with tRNA^pyl/pylRS^AF. The conditions noted are these: 1 mM UAA; for incorporation by RS^AF (GFP fluorescence, SDS-PAGE): FIG. 6; for Expression of GFP^TAG protein: pylRS^WT or pylRS^AF, compared to negative control (FIG. 1).

In experiment [2] the target is T4, wildtype pyrrolysyl tRNA synthetase (pylRS^WT) (Methanosarcina mazei, UniProt Q8PWY1).
T4 construct: expressed in transfected cells; host or cells: E. coli Top10, plasmid pEVOL tRNA^pyl/pylRS^WT
T4 sequence (Q8PWY1 whole entry): as the sequence (Q8PWY1 whole entry) above
Kind of experiment: Expression of GFP^TAG in E. coli in presence of UAA (amber suppression) with tRNA^pyl/pylRS^WT. The conditions noted are these: 1 mM UAA, FIG. 6.

T1 sequence (Q8PWY1 whole entry Y306A/Y384F): as the sequence (Q8PWY1 whole entry) above, with Y306A, Y384F counted along it

Take `N[C@@H](CCCCNC(=O)OC1C#CCCCCC1)C(=O)O` (stereo partly drawn) [compound 1, N-ε-((Cyclooct-2-yn-1-yloxy)carbonyl)-L-lysine]: the “IGFP (average intensity of GFP, normalized)” value on tRNA^pyl/pylRS^AF (1 μM UAA) was determined as 23.7; at tRNA^pyl/pylRS^AF (10 μM UAA), 131.7; on tRNA^pyl/pylRS^AF (100 μM UAA), 106.1; at tRNA^pyl/pylRS^AF (250 μM UAA), 203.6; at tRNA^pyl/pylRS^AF (1000 μM UAA), 118.4; at tRNA^pyl/pylRS^WT (1 μM UAA), 3.3. Besides, the “IGFP (average intensity of GFP, normalized)” value on tRNA^pyl/pylRS^WT (10 μM UAA) came out at 5.9; at tRNA^pyl/pylRS^WT (100 μM UAA), 27.6; on tRNA^pyl/pylRS^WT (250 μM UAA) it was 59.6; on tRNA^pyl/pylRS^WT (1000 μM UAA), 57.5. The “incorporation by RS^AF (GFP fluorescence, SDS-PAGE)” value (“incorporation by RS^AF” for short) in experiment [1] is given as “efficient incorporation”. In experiment [1], the “Expression of GFP^TAG protein” value was “observed”.
Consider `N[C@@H](CCCCNC(=O)OCCOC1C#CCCCCC1)C(=O)O` (stereo partly drawn) [compound 2, N-ε-((2-(Cyclooct-2-yn-1-yloxy)ethoxy)carbonyl)-L-lysine], for which the “Expression of GFP^TAG protein” value in experiment [1] is “observed”.
`N[C@@H](CCCCNC(=O)OC1CC/C=C/CCC1)C(=O)O` (some centres unmarked) [compound 13]: the “IGFP (average intensity of GFP, normalized)” value came to 11.1 on tRNA^pyl/pylRS^AF (1 μM UAA); 11.0 at tRNA^pyl/pylRS^AF (10 μM UAA); 28.8 on tRNA^pyl/pylRS^AF (100 μM UAA); 36.5 on tRNA^pyl/pylRS^AF (250 μM UAA); 20.6 on tRNA^pyl/pylRS^AF (1000 μM UAA); 6.3 on tRNA^pyl/pylRS^WT (1 μM UAA). Further, the “IGFP (average intensity of GFP, normalized)” value worked out at 6.9 on tRNA^pyl/pylRS^WT (10 μM UAA), 15.9 at tRNA^pyl/pylRS^WT (100 μM UAA), 22.3 on tRNA^pyl/pylRS^WT (250 μM UAA) and 33.2 at tRNA^pyl/pylRS^WT (1000 μM UAA). For the same compound, the “incorporation by RS^AF” value in experiment [1] was “efficient incorporation”.
Take `N[C@@H](CCCCNC(=O)OC1CC2C=CC1C2)C(=O)O` (some centres unmarked) [compound 16]: the “IGFP (average intensity of GFP, normalized)” value at tRNA^pyl/pylRS^AF (1 μM UAA) amounted to 5.7; on tRNA^pyl/pylRS^AF (10 μM UAA) it was 46.1; on tRNA^pyl/pylRS^AF (100 μM UAA), 114.8; at tRNA^pyl/pylRS^AF (250 μM UAA), 100.4; on tRNA^pyl/pylRS^AF (1000 μM UAA), 96.9; on tRNA^pyl/pylRS^WT (1 μM UAA), 1.5. Besides, the “IGFP (average intensity of GFP, normalized)” value at tRNA^pyl/pylRS^WT (10 μM UAA) came to 6.9; at tRNA^pyl/pylRS^WT (100 μM UAA) it was 9.4; on tRNA^pyl/pylRS^WT (250 μM UAA), 171.6; at tRNA^pyl/pylRS^WT (1000 μM UAA) it was 178.3. The “Incorporation by RS^WT (GFP^TAG expression)” value in experiment [2] is reported as “highest GFP^TAG expression”. Further, in experiment [1], the “incorporation by RS^AF” value was “efficient incorporation”.
On to `N[C@@H](CCCCNC(=O)OCC1CC2C=CC1C2)C(=O)O` (some centres unmarked) [compound 17], for which the “IGFP (average intensity of GFP, normalized)” value at tRNA^pyl/pylRS^AF (1 μM UAA) came out at 10.9; on tRNA^pyl/pylRS^AF (10 μM UAA), 57.5; at tRNA^pyl/pylRS^AF (100 μM UAA) it was 76.6; on tRNA^pyl/pylRS^AF (250 μM UAA), 163.5; on tRNA^pyl/pylRS^AF (1000 μM UAA) it was 108.9; at tRNA^pyl/pylRS^WT (1 μM UAA), 4.2. Further, the “IGFP (average intensity of GFP, normalized)” value at tRNA^pyl/pylRS^WT (10 μM UAA) was 2.6; at tRNA^pyl/pylRS^WT (100 μM UAA), 4.3; at tRNA^pyl/pylRS^WT (250 μM UAA), 5.7; at tRNA^pyl/pylRS^WT (1000 μM UAA) it was 12.8. Besides, the “incorporation by RS^AF” value in experiment [1] is “efficient incorporation”.
